Assay: Dynamic viscosity, Brookfield Digital Viscometer
Format: physicochemical
Conditions: dye preparation
Experimental: The viscosity of the preparations were determined by means of a Brookfield Digital Viscometer, model DV-I+, version 2.0, at 25° after stabilisation for 30 min.

Q: Which “Viscosity (cP)” value (NaCMC conc. 0 (water)) does the source give for brilliant blue dye here?
A: 1 (water) cP

Q: And the “Viscosity (cP)” value (NaCMC conc. 0.2 (w/v), with Tween 40 and methyl paraoxybenzoate)?
A: 22.0 cP

Q: And the “Viscosity (cP)” value (NaCMC conc. 0.5 (w/v), with Tween 40 and methyl paraoxybenzoate)?
A: 85.2 cP

Source: patent US6647980B1, “Method for administration of active substances to the olfactory region” (priority 1997, dated 2003)
